Where “and” joins values, the source holds several entries; their conditions need not be identical. Equal values may be shown once.
What was measured:
Conditions in all cases: in vivo
[1] = test system: Meloidogyne javanica
[2] = test system: nematode inoculum (eggs and larvae) in soil; set-up: species or system Meloidogyne javanica
[3] = test system: root-knot nematodes Meloidogyne javanica

## N[C@@H](CC(=O)O)C(=O)O [Aspartic acid]
[1]
  reduction of galling infection: most effective

## N[C@@H](CS)C(=O)O [Cysteine]
[1]
  reduction of galling infection: most effective

## NCCCC[C@H](N)C(=O)O [Lysine]
[1]
  reduction of galling infection: most effective

## CBr [Methyl Bromide]
[2]
  control of nematode infection in the roots: highly effective in controlling nematode infection in the roots

## O=[PH](O)O [phosphite, H3PO3]
[1]
  galling incidence and galling index (nematode control): higher efficacy in controlling nematodes as compared with urea

## OP(O)O [phosphorous acid]
[3]
  galling incidence: 20% and 10%
